Measurements published in the supplement of paper PMC11451515.

Legend:
[1] = test system: SEM cells; assay: cell viability relative to DMSO control; higher = less cytotoxic; settings: 48 h
Summary of the method: (§1)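 Leukemia cells (NOMO1 or SEM, 500 cells/well; P12-Ichikawa, 1000 cells/well) were seeded in 5 μl in 1536-well plates after at least four passages of adaptation to each medium. They received library compounds in DMSO by pin dosing, 11 threefold points from 47 μM to 0.79 nM. Luminescence with CellTiter-Glo One was read after 48 h at 37°C. Viability is stated per plate relative to DMSO wells, with cell-free wells as background.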

[2] = test system: NOMO1; assay: AUC of viability dose-response curve (% viability x log10 dose units); higher = less sensitive; settings: 48 h
Summary of the method: (§2)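 Over 48 h at 37°C, leukemia cells in 1536-well plates (500 or 1000 cells/well), adapted to each medium, received library compounds in DMSO at 11 threefold doses from 47 μM to 0.79 nM. CellTiter-Glo One luminescence, normalised per plate to DMSO and cell-free wells, was fitted by a four-parameter log-logistic function of log10 dose. The area under the curve was then integrated by trapezoidal rule, after scaling curves above full viability and removing those that failed quality control.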

[3] = test system: P12-Ichikawa; assay: as above; settings: 48 h
Summary of the method: as §2

[4] = test system: SEM cells; assay: as above; settings: 48 h
Summary of the method: as §2

[5] = test system: P12-Ichikawa; assay: cell viability relative to DMSO control; higher = less cytotoxic; settings: HPLM + 10% dialyzed FBS, 48 h
Summary of the method: as §1

Cc1cc(Nc2cc(NC(=O)c3c(Cl)cccc3Cl)ccn2)nc(N)n1
[1], HPLM + 10% dialyzed FBS
Settings	cell viability [%]
0.000781 µM	112
0.00234 µM	123
0.00702 µM	126
0.0211 µM	124
0.0632 µM	128
0.19 µM	128
0.569 µM	113
1.71 µM	61.3
5.12 µM	40.9
15.4 µM	37.9
46.1 µM	40.2

AUC of viability dose-response curve
Settings	[2]	[3]	[4]
HPLM + 10% dialyzed FBS	373	364	368
RPMI 5 mM glucose + 10% FBS	391	364	391
RPMI 5 mM glucose + 10% dialyzed FBS	359	346	341

CC(C)(CO)[C@@H](O)C(=O)NCCC(=O)O
AUC of viability dose-response curve
Settings	[2]	[3]	[4]
HPLM + 10% dialyzed FBS	440	466	469
RPMI 5 mM glucose + 10% FBS	470	471	471
RPMI 5 mM glucose + 10% dialyzed FBS	461	463	465

C=C1/C(=C\C=C2/CCC[C@]3(C)[C@@H]([C@H](C)CCCC(C)(C)O)CC[C@@H]23)C[C@@H](O)C[C@@H]1O
Settings	AUC of viability dose-response curve	cell viability [%]
[2], HPLM + 10% dialyzed FBS	440	–
[2], RPMI 5 mM glucose + 10% FBS	448	–
[2], RPMI 5 mM glucose + 10% dialyzed FBS	448	–
[3], HPLM + 10% dialyzed FBS	454	–
[3], RPMI 5 mM glucose + 10% FBS	445	–
[3], RPMI 5 mM glucose + 10% dialyzed FBS	458	–
[4], HPLM + 10% dialyzed FBS	459	–
[4], RPMI 5 mM glucose + 10% FBS	449	–
[4], RPMI 5 mM glucose + 10% dialyzed FBS	450	–
[5], 0.000781 µM	–	122
[5], 0.00234 µM	–	126
[5], 0.00702 µM	–	118
[5], 0.0211 µM	–	131
[5], 0.0632 µM	–	124
[5], 0.19 µM	–	123
[5], 0.569 µM	–	120
[5], 1.71 µM	–	117
[5], 15.4 µM	–	118
[5], 46.1 µM	–	90.4

[1], RPMI 5 mM glucose + 10% FBS
Settings	cell viability [%]
0.000781 µM	105
0.00234 µM	120
0.00702 µM	117
0.0211 µM	113
0.0632 µM	123
0.19 µM	110
0.569 µM	126
1.71 µM	113
5.12 µM	92.9
15.4 µM	98.7
46.1 µM	57.2

NC1=C(Cl)C(=CC=N1)OC2=C(F)C=C(NC(=O)\C3=C\N\C=C(C3=O)\C4=CC=C(F)C=C4)C=C2
cell viability [%], [1]
Settings	HPLM + 10% dialyzed FBS	RPMI 5 mM glucose + 10% FBS	RPMI 5 mM glucose + 10% dialyzed FBS
0.000781 µM	118	129	140
0.00234 µM	107	113	103
0.00702 µM	121	115	115
0.0211 µM	72.2	79.2	65.7
0.0632 µM	92.6	76	60
0.19 µM	72.6	70.5	57.7
0.569 µM	64.4	65.3	59.1
1.71 µM	64	76.2	59.5
5.12 µM	58.8	49	57.9
15.4 µM	64.1	46.7	58.5
46.1 µM	11.5	3.66	4.6

AUC of viability dose-response curve
Settings	[2]	[3]	[4]
HPLM + 10% dialyzed FBS	441	451	312
RPMI 5 mM glucose + 10% FBS	452	448	287
RPMI 5 mM glucose + 10% dialyzed FBS	453	447	247

COC(c1ccccc1)(c1ccccc1)[C@H](Oc1nc(C)cc(C)n1)C(=O)O
[1], RPMI 5 mM glucose + 10% dialyzed FBS
Settings	cell viability [%]
0.000781 µM	115
0.00234 µM	134
0.00702 µM	122
0.0211 µM	139
0.0632 µM	177
0.19 µM	160
0.569 µM	167
1.71 µM	152
5.12 µM	140
15.4 µM	133
46.1 µM	85.1

AUC of viability dose-response curve
Settings	[2]	[3]	[4]
HPLM + 10% dialyzed FBS	444	464	462
RPMI 5 mM glucose + 10% FBS	452	465	466
RPMI 5 mM glucose + 10% dialyzed FBS	467	464	463

COc1ccc2cc([C@H](C)C(=O)O)ccc2c1
AUC of viability dose-response curve
Settings	[2]	[3]	[4]
HPLM + 10% dialyzed FBS	465	448	412
RPMI 5 mM glucose + 10% FBS	476	469	401
RPMI 5 mM glucose + 10% dialyzed FBS	460	464	410

N#Cc1ccc(COC[C@H]2O[C@@H](n3c(NCc4ccc(Cl)c(Cl)c4)nc4c(N)ncnc43)[C@H](O)[C@@H]2O)cc1
AUC of viability dose-response curve
Settings	[2]	[3]	[4]
HPLM + 10% dialyzed FBS	420	458	465
RPMI 5 mM glucose + 10% FBS	428	414	411
RPMI 5 mM glucose + 10% dialyzed FBS	420	415	431

C/C=C/C/C=C/CCC(=O)[C@H]1O[C@H]1C(N)=O
cell viability [%], [1]
Settings	HPLM + 10% dialyzed FBS	RPMI 5 mM glucose + 10% FBS
0.000781 µM	105	106
0.00234 µM	107	117
0.00702 µM	118	132
0.0211 µM	123	110
0.0632 µM	117	121
0.19 µM	126	120
0.569 µM	109	132
1.71 µM	124	111
5.12 µM	113	128
15.4 µM	112	118
46.1 µM	71.5	55.3

AUC of viability dose-response curve
Settings	[2]	[3]	[4]
HPLM + 10% dialyzed FBS	457	470	466
RPMI 5 mM glucose + 10% FBS	458	473	464
RPMI 5 mM glucose + 10% dialyzed FBS	476	469	464

O=C1NC(=O)/C(=C\c2ccc(-c3ccc(F)cc3)o2)S1
AUC of viability dose-response curve
Settings	[2]	[3]	[4]
HPLM + 10% dialyzed FBS	415	436	455
RPMI 5 mM glucose + 10% FBS	462	445	462
RPMI 5 mM glucose + 10% dialyzed FBS	444	455	457

OC(=O)C/1=C/C(=O)NC(=O)N1
AUC of viability dose-response curve
Settings	[2]	[3]	[4]
HPLM + 10% dialyzed FBS	424	455	466
RPMI 5 mM glucose + 10% FBS	450	457	457
RPMI 5 mM glucose + 10% dialyzed FBS	437	456	458

C[C@H](CCC(=O)O)[C@H]1CC[C@H]2[C@@H]3[C@@H](O)C[C@@H]4C[C@H](O)CC[C@]4(C)[C@H]3CC[C@]12C
AUC of viability dose-response curve
Settings	[2]	[3]	[4]
HPLM + 10% dialyzed FBS	401	445	441
RPMI 5 mM glucose + 10% FBS	414	461	462
RPMI 5 mM glucose + 10% dialyzed FBS	398	435	449

O=C(NCC1CCCCN1)c1cc(OCC(F)(F)F)ccc1OCC(F)(F)F (stereo not drawn)
cell viability [%], [1]
Settings	HPLM + 10% dialyzed FBS	RPMI 5 mM glucose + 10% FBS
0.000781 µM	104	117
0.00234 µM	130	115
0.00702 µM	115	124
0.0211 µM	128	137
0.0632 µM	130	121
0.19 µM	151	127
0.569 µM	130	131
1.71 µM	140	128
5.12 µM	115	120
15.4 µM	118	121
46.1 µM	43.7	61.9

AUC of viability dose-response curve
Settings	[2]	[3]	[4]
HPLM + 10% dialyzed FBS	326	352	457
RPMI 5 mM glucose + 10% FBS	304	353	464
RPMI 5 mM glucose + 10% dialyzed FBS	317	375	468
